ChEMBL document CHEMBL1201862, “PubChem BioAssay data set” (2004)
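Dose response: 5 concentrations. Exposure: 48 h. Format: 96-well plates. Endpoint: linear interpolation; highest concentration if not reached. GI50: concentration for 50% inhibition of growth.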 Active and inactive are the calls of the source. Cut-off read from the data, not from the text of the source: active = GI50 up to about 1.1 µM and inactive = higher.

Legend:
Assay in all cases: NCI-60 cell line screen, 48 h
[1] = system: LXFL 529
[2] = system: NCI-H460
[3] = system: UO-31
[4] = system: U-251
[5] = system: TK-10
[6] = system: SNB-75
[7] = system: Malme-3M
[8] = system: A549
[9] = system: SN12C
[10] = system: UACC-62
[11] = system: MOLT-4
[12] = system: HOP-18
[13] = system: SF-539
[14] = system: HCC 2998
[15] = system: RXF 393
[16] = system: SK-MEL-5
[17] = system: SR
[18] = system: DMS-114
[19] = system: HCT-15
[20] = system: SK-OV-3
[21] = system: NCI-H23
[22] = system: SW-620
[23] = system: A498
[24] = system: CCRF-CEM
[25] = system: DMS-273
[26] = system: ACHN
[27] = system: DLD-1
[28] = system: XF498
[29] = system: SNB-78
[30] = system: SF-268
[31] = system: SK-MEL-28
[32] = system: COLO 205
[33] = system: LOX IMVI
[34] = system: OVCAR-3
[35] = system: HL-60
[36] = system: M19-MEL
[37] = system: M14
[38] = system: HT-29
[39] = system: EKVX
[40] = system: 786-0
[41] = system: SF-295
[42] = system: SNB-19
[43] = system: OVCAR-8
[44] = system: KM12
[45] = system: RXF 631
[46] = system: RPMI-8226
[47] = system: K562
[48] = system: OVCAR-4
[49] = system: IGROV-1
[50] = system: CAKI-1
[51] = system: NCI-H226
[52] = system: OVCAR-5
[53] = system: KM-20L2
[54] = system: NCI-H522
[55] = system: SK-MEL-2
[56] = system: HOP-92
[57] = system: UACC-257
[58] = system: HCT-116
[59] = system: HOP-62

## CN1CC(=O)N(C)c2ncn(Cc3ccccc3)c2C1=O
[1]
  GI50: > 100 µM (inactive)
[2]
  GI50: > 100 µM (inactive)
[3]
  GI50: > 100 µM (inactive)
[4]
  GI50: > 100 µM (inactive)
[5]
  GI50: > 100 µM (inactive)
[6]
  GI50: > 100 µM (inactive)
[7]
  GI50: > 100 µM (inactive)
[8]
  GI50: > 100 µM (inactive)
[9]
  GI50: > 100 µM (inactive)
[10]
  GI50: > 100 µM (inactive)
[11]
  GI50: > 100 µM (inactive)
[12]
  GI50: > 100 µM (inactive)
[13]
  GI50: > 100 µM (inactive)
[14]
  GI50: > 100 µM (inactive)
[15]
  GI50: > 100 µM (inactive)
[16]
  GI50: > 100 µM (inactive)
[17]
  GI50: > 100 µM (inactive)
[18]
  GI50: > 100 µM (inactive)
[19]
  GI50: > 100 µM
[20]
  GI50: > 100 µM (inactive)
[21]
  GI50: > 100 µM (inactive)
[22]
  GI50: > 100 µM (inactive)
[23]
  GI50: > 100 µM (inactive)
[24]
  GI50: > 100 µM (inactive)
[25]
  GI50: > 100 µM (inactive)
[26]
  GI50: > 100 µM (inactive)
[27]
  GI50: > 100 µM (inactive)
[28]
  GI50: 17 µM (inactive)
[29]
  GI50: > 100 µM (inactive)
[30]
  GI50: 12.2 µM (inactive)
[31]
  GI50: > 100 µM (inactive)
[32]
  GI50: > 100 µM (inactive)
[33]
  GI50: > 100 µM (inactive)
[34]
  GI50: > 100 µM (inactive)
[35]
  GI50: > 100 µM (inactive)
[36]
  GI50: > 100 µM (inactive)
[37]
  GI50: > 100 µM (inactive)
[38]
  GI50: > 100 µM (inactive)
[39]
  GI50: > 100 µM (inactive)
[40]
  GI50: > 100 µM (inactive)
[41]
  GI50: > 100 µM (inactive)
[42]
  GI50: > 100 µM (inactive)
[43]
  GI50: > 100 µM (inactive)
[44]
  GI50: > 100 µM (inactive)
[45]
  GI50: 4.68 µM (inactive)
[46]
  GI50: > 100 µM (inactive)
[47]
  GI50: > 100 µM (inactive)
[48]
  GI50: > 100 µM (inactive)
[49]
  GI50: > 100 µM (inactive)

## O=C(O)CN(c1ccc(Cl)cc1)S(=O)(=O)c1ccccc1
[50]
  GI50: > 100 µM (inactive)
[1]
  GI50: > 100 µM (inactive)
[2]
  GI50: > 100 µM (inactive)
[3]
  GI50: > 100 µM (inactive)
[4]
  GI50: > 100 µM (inactive)
[5]
  GI50: > 100 µM (inactive)
[6]
  GI50: > 100 µM (inactive)
[7]
  GI50: > 100 µM (inactive)
[8]
  GI50: > 100 µM (inactive)
[9]
  GI50: > 100 µM (inactive)
[51]
  GI50: > 100 µM (inactive)
[10]
  GI50: > 100 µM (inactive)
[11]
  GI50: > 100 µM (inactive)
[12]
  GI50: > 100 µM (inactive)
[13]
  GI50: > 100 µM (inactive)
[15]
  GI50: > 100 µM (inactive)
[16]
  GI50: > 100 µM (inactive)
[19]
  GI50: > 100 µM
[20]
  GI50: > 100 µM (inactive)
[21]
  GI50: > 100 µM (inactive)
[22]
  GI50: > 100 µM (inactive)
[23]
  GI50: > 100 µM (inactive)
[24]
  GI50: > 100 µM (inactive)
[25]
  GI50: > 100 µM (inactive)
[26]
  GI50: > 100 µM (inactive)
[27]
  GI50: > 100 µM (inactive)
[52]
  GI50: > 100 µM (inactive)
[28]
  GI50: > 100 µM (inactive)
[53]
  GI50: > 100 µM (inactive)
[30]
  GI50: > 100 µM (inactive)
[54]
  GI50: > 100 µM (inactive)
[31]
  GI50: > 100 µM (inactive)
[32]
  GI50: 51.2 µM (inactive)
[33]
  GI50: > 100 µM (inactive)
[34]
  GI50: > 100 µM (inactive)
[55]
  GI50: > 100 µM (inactive)
[35]
  GI50: > 100 µM (inactive)
[36]
  GI50: > 100 µM (inactive)
[37]
  GI50: > 100 µM (inactive)
[38]
  GI50: > 100 µM (inactive)
[39]
  GI50: > 100 µM (inactive)
[40]
  GI50: > 100 µM (inactive)
[56]
  GI50: > 100 µM (inactive)
[41]
  GI50: > 100 µM (inactive)
[42]
  GI50: > 100 µM (inactive)
[43]
  GI50: > 100 µM (inactive)
[44]
  GI50: > 100 µM (inactive)
[45]
  GI50: > 100 µM (inactive)
[46]
  GI50: > 100 µM (inactive)
[47]
  GI50: > 100 µM (inactive)
[57]
  GI50: > 100 µM (inactive)
[48]
  GI50: > 100 µM (inactive)
[49]
  GI50: > 100 µM (inactive)

## CN1CCCCC(C(O)(c2ccccc2)c2ccccc2)C1=O (stereo unspecified)
[1]
  GI50: 81.7 µM (inactive)
[2]
  GI50: 80 µM (inactive)
[3]
  GI50: > 100 µM (inactive)
[4]
  GI50: > 100 µM (inactive)
[5]
  GI50: > 100 µM (inactive)
[6]
  GI50: > 100 µM (inactive)
[7]
  GI50: > 100 µM (inactive)
[58]
  GI50: 24.8 µM (inactive)
[8]
  GI50: > 100 µM (inactive)
[9]
  GI50: > 100 µM (inactive)
[51]
  GI50: > 100 µM (inactive)
[10]
  GI50: > 100 µM (inactive)
[11]
  GI50: > 100 µM (inactive)
[59]
  GI50: > 100 µM (inactive)
[12]
  GI50: > 100 µM (inactive)
[13]
  GI50: > 100 µM (inactive)
[14]
  GI50: > 100 µM (inactive)
[15]
  GI50: 69 µM (inactive)
[16]
  GI50: > 100 µM (inactive)
[17]
  GI50: > 100 µM (inactive)
[18]
  GI50: 86.1 µM (inactive)
[19]
  GI50: 16.3 µM
[20]
  GI50: > 100 µM (inactive)
[21]
  GI50: > 100 µM (inactive)
[22]
  GI50: 11.9 µM (inactive)
[23]
  GI50: > 100 µM (inactive)
[24]
  GI50: 85.5 µM (inactive)
[25]
  GI50: 44.1 µM (inactive)
[26]
  GI50: > 100 µM (inactive)
[27]
  GI50: 39.4 µM (inactive)
[52]
  GI50: > 100 µM (inactive)
[28]
  GI50: > 100 µM (inactive)
[53]
  GI50: > 100 µM (inactive)
[29]
  GI50: > 100 µM (inactive)
[30]
  GI50: > 100 µM (inactive)
[54]
  GI50: > 100 µM (inactive)
[31]
  GI50: > 100 µM (inactive)
[32]
  GI50: 56.2 µM (inactive)
[33]
  GI50: > 100 µM (inactive)
[34]
  GI50: > 100 µM (inactive)
[55]
  GI50: > 100 µM (inactive)
[36]
  GI50: > 100 µM (inactive)
[37]
  GI50: > 100 µM (inactive)
[38]
  GI50: > 100 µM (inactive)
[39]
  GI50: > 100 µM (inactive)
[40]
  GI50: > 100 µM (inactive)
[56]
  GI50: > 100 µM (inactive)
[41]
  GI50: > 100 µM (inactive)
[42]
  GI50: > 100 µM (inactive)
[43]
  GI50: > 100 µM (inactive)
[44]
  GI50: > 100 µM (inactive)
[45]
  GI50: 42.4 µM (inactive)
[46]
  GI50: 24.1 µM (inactive)
[47]
  GI50: > 100 µM (inactive)
[57]
  GI50: > 100 µM (inactive)
[48]
  GI50: > 100 µM (inactive)
[49]
  GI50: > 100 µM (inactive)

## O=C(Nc1ccc(Cl)cc1Cl)C(=O)C(C(=O)c1ccncc1)C1OC(=O)c2ccccc21 (stereo unspecified)
[50]
  GI50: > 100 µM (inactive)
[1]
  GI50: > 100 µM (inactive)
[2]
  GI50: > 100 µM (inactive)
[3]
  GI50: > 100 µM (inactive)
[4]
  GI50: > 100 µM (inactive)
[5]
  GI50: > 100 µM (inactive)
[6]
  GI50: > 100 µM (inactive)
[7]
  GI50: > 100 µM (inactive)
[58]
  GI50: > 100 µM (inactive)
[8]
  GI50: > 100 µM (inactive)
[9]
  GI50: > 100 µM (inactive)
[51]
  GI50: > 100 µM (inactive)
[10]
  GI50: > 100 µM (inactive)
[11]
  GI50: > 100 µM (inactive)
[59]
  GI50: > 100 µM (inactive)
[12]
  GI50: > 100 µM (inactive)
[13]
  GI50: > 100 µM (inactive)
[14]
  GI50: > 100 µM (inactive)
[15]
  GI50: > 100 µM (inactive)
[16]
  GI50: > 100 µM (inactive)
[17]
  GI50: > 100 µM (inactive)
[18]
  GI50: > 100 µM (inactive)
[19]
  GI50: > 100 µM
[20]
  GI50: > 100 µM (inactive)
[21]
  GI50: > 100 µM (inactive)
[22]
  GI50: > 100 µM (inactive)
[23]
  GI50: > 100 µM (inactive)
[24]
  GI50: > 100 µM (inactive)
[26]
  GI50: > 100 µM (inactive)
[27]
  GI50: > 100 µM (inactive)
[52]
  GI50: > 100 µM (inactive)
[28]
  GI50: > 100 µM (inactive)
[53]
  GI50: > 100 µM (inactive)
[29]
  GI50: > 100 µM (inactive)
[30]
  GI50: > 100 µM (inactive)
[54]
  GI50: > 100 µM (inactive)
[31]
  GI50: > 100 µM (inactive)
[32]
  GI50: > 100 µM (inactive)
[33]
  GI50: > 100 µM (inactive)
[34]
  GI50: > 100 µM (inactive)
[35]
  GI50: > 100 µM (inactive)
[36]
  GI50: > 100 µM (inactive)
[37]
  GI50: > 100 µM (inactive)
[38]
  GI50: > 100 µM (inactive)
[39]
  GI50: > 100 µM (inactive)
[40]
  GI50: > 100 µM (inactive)
[56]
  GI50: > 100 µM (inactive)
[41]
  GI50: > 100 µM (inactive)
[42]
  GI50: > 100 µM (inactive)
[43]
  GI50: > 100 µM (inactive)
[44]
  GI50: > 100 µM (inactive)
[45]
  GI50: > 100 µM (inactive)
[46]
  GI50: > 100 µM (inactive)
[47]
  GI50: > 100 µM (inactive)
[57]
  GI50: > 100 µM (inactive)
[48]
  GI50: > 100 µM (inactive)
[49]
  GI50: > 100 µM (inactive)
